The CheMixHub viscosity set

Assay: xn = mol fraction of the nth substance listed

CCCCCOC(C)=O + CCCCO
viscosity [mPa·s], 101.33 kPa
Details | x1 = 0.1138 | x1 = 0.2047 | x1 = 0.3089 | x1 = 0.4008 | x1 = 0.5 | x1 = 0.6103 | x1 = 0.7064 | x1 = 0.8088 | x1 = 0.9025
293.15 K | 2.52 | 2.275 | 2.024 | 1.825 | 1.633 | 1.443 | 1.295 | 1.154 | 1.039
303.15 K | 2.02 | 1.838 | 1.649 | 1.499 | 1.353 | 1.206 | 1.092 | 0.982 | 0.891
313.15 K | 1.515 | 1.395 | 1.269 | 1.167 | 1.066 | 0.964 | 0.883 | 0.805 | 0.739
323.15 K | 1.009 | 0.948 | 0.883 | 0.83 | 0.776 | 0.72 | 0.674 | 0.629 | 0.59

CCCCCOC(C)=O + CCCCOC(C)=O
298.15 K, 101.33 kPa
Details | viscosity [mPa·s]
x2 = 0.1116 | 0.834
x2 = 0.2559 | 0.81
x2 = 0.3941 | 0.787
x2 = 0.5285 | 0.76
x2 = 0.6578 | 0.738
x2 = 0.7859 | 0.715
x2 = 0.9088 | 0.694

C=CC(=O)OC + CCCCn1cc[n+](C)c1.F[B-](F)(F)F
303.15 K, 101 kPa
Details | viscosity [mPa·s]
x2 = 0.5005 | 16.06
x2 = 0.9242 | 63.95

CN(C)CCO + CCCCn1cc[n+](C)c1.F[P-](F)(F)(F)(F)F
viscosity [mPa·s], 101 kPa
Details | x1 = 0.1221 | x1 = 0.2143 | x1 = 0.3182 | x1 = 0.4405 | x1 = 0.5166 | x1 = 0.605 | x1 = 0.709 | x1 = 0.8063 | x1 = 0.9128
293.15 K | – | – | 87.91 | 60.57 | 47.58 | 34.73 | – | – | 7.95
298.15 K | – | 88.45 | 66.23 | 45.68 | 36.09 | 27.08 | – | – | 6.67
303.15 K | – | 67.51 | 50.77 | 35.67 | 28.45 | – | – | – | 5.64
308.15 K | 67.28 | 52.1 | 39.24 | 27.9 | – | – | – | 7.99 | 4.78
313.15 K | 52.9 | 41.46 | 31.33 | – | – | – | 9.84 | 6.74 | 4.13
318.15 K | 42.39 | 33.36 | 25.47 | – | – | – | 8.35 | 5.74 | 3.59
323.15 K | 35.09 | 27.71 | – | – | – | 9.86 | 7.12 | 4.99 | 3.18

C=CC(=O)OC + CCCO
viscosity [mPa·s], 101.33 kPa
Details | 308.15 K | 318.15 K
x1 = 0.0501 | 1.354 | 1.107
x1 = 0.1464 | 1.081 | 0.916
x1 = 0.2331 | 0.9 | 0.782
x1 = 0.3469 | 0.727 | 0.648
x1 = 0.4436 | 0.622 | 0.561
x1 = 0.5011 | 0.572 | 0.519
x1 = 0.5436 | 0.541 | 0.492
x1 = 0.6429 | 0.483 | 0.439
x1 = 0.7442 | 0.441 | 0.397
x1 = 0.8449 | 0.413 | 0.365
x1 = 0.9424 | 0.396 | 0.343

CCCCCC + CCCO
viscosity [mPa·s]
Details | 298.15 K | 308.15 K
100 kPa, x1 = 0.0603 | 1.619 | –
100 kPa, x1 = 0.0992 | 1.44 | –
100 kPa, x1 = 0.2086 | 1.07 | –
100 kPa, x1 = 0.4056 | 0.6737 | –
100 kPa, x1 = 0.5016 | 0.5493 | –
100 kPa, x1 = 0.5979 | 0.4564 | –
100 kPa, x1 = 0.7014 | 0.3861 | –
100 kPa, x1 = 0.8029 | 0.3467 | –
100 kPa, x1 = 0.9039 | 0.3116 | –
100 kPa, x1 = 0.9486 | 0.3029 | –
100 kPa, x2 = 0.0679 | 0.3219 | 0.2901
100 kPa, x2 = 0.1319 | 0.3383 | 0.3038
100 kPa, x2 = 0.2357 | 0.3688 | 0.3515
100 kPa, x2 = 0.3681 | 0.4378 | 0.3916
100 kPa, x2 = 0.4848 | 0.5309 | 0.4635
100 kPa, x2 = 0.5884 | 0.6557 | 0.5724
100 kPa, x2 = 0.6811 | 0.8015 | 0.6603
100 kPa, x2 = 0.7644 | 0.998 | 0.8293
100 kPa, x2 = 0.8398 | 1.172 | 0.9551
100 kPa, x2 = 0.9083 | 1.427 | 1.177
100 kPa, x2 = 0.9708 | 1.762 | 1.427
101.33 kPa, x2 = 0.1148 | 0.34 | –
101.33 kPa, x2 = 0.1407 | 0.345 | –
101.33 kPa, x2 = 0.2154 | 0.369 | –
101.33 kPa, x2 = 0.3704 | 0.451 | –
101.33 kPa, x2 = 0.5278 | 0.603 | –
101.33 kPa, x2 = 0.6309 | 0.75 | –
101.33 kPa, x2 = 0.7618 | 1.038 | –
101.33 kPa, x2 = 0.8626 | 1.349 | –
101.33 kPa, x2 = 0.9594 | 1.756 | –

CCCC=O + CCO
298.1 K, 101 kPa
Details | viscosity [mPa·s]
x1 = 0.1009 | 1.261
x1 = 0.1952 | 1.413
x1 = 0.3034 | 1.484
x1 = 0.3333 | 1.463
x1 = 0.3989 | 1.366
x1 = 0.5109 | 1.103
x1 = 0.5976 | 0.896
x1 = 0.7003 | 0.7
x1 = 0.7924 | 0.564
x1 = 0.8988 | 0.468
